According to EP4778929A1, “NOVEL TYPE I TOPOISOMERASE INHIBITOR, AND PREPARATION METHOD THEREFOR AND USE THEREOF” (priority 2023, dated 2025):

How the values were obtained:
[1] = Pharmacokinetic study in mice, plasma concentrations by LC-MS/MS; settings: mouse, in vivo
Experimental: Test Example 3. Pharmacokinetic Study for Determining Compound Concentrations in Mice by LC-MS/MS
Principle: LC-MS/MS is used to quantify the plasma concentrations of the test article at successive time points, generating an in-vivo pharmacokinetic profile.
Procedure: The test compound was dissolved in DMSO to prepare a 10 mg/mL stock solution. This stock was further diluted to 1 mg/mL with a vehicle consisting of 10 % DMSO + 10 % Solutol HS-15 + 80 % saline. Male CD-1 mice (JH Laboratory Animal Co., LTD) were employed; six animals were assigned per compound group. […] Serial blood samples (~50 µL whole blood, K2EDTA anticoagulant) were collected at 0.083, 0.25, 0.5, 1, 2, 4, 8 and 24 h (three mice per time point in a crossover design). Blood was centrifuged at 6 000 g for 5 min at 4 °C; plasma was harvested and stored at -70 °C until analysis. Plasma drug concentrations were determined by LC-MS/MS.
Calibration Curve and QC Preparation: Working solutions were prepared by dilution with MeOH:H2O (1:1). For each calibration or QC level, 3 µL of working solution was spiked into 57 µL of blank mouse plasma.
Sample Processing: To 30 µL of plasma was added 200 µL of methanol containing the internal standard (propranolol, 40 ng mL^-1). After vortex-mixing for 1 min, the mixture was centrifuged at 12 000 rpm for 10 min. A 100 µL aliquot of the supernatant was transferred to a clean plate for injection.
Pharmacokinetic Analysis: Concentration-time data were analyzed with WinNonlin 8.2 using a non-compartmental approach to derive PK parameters including Cmax, Tmax, AUC and terminal elimination half-life (t1/2). AUC was calculated by the linear-up/log-down trapezoidal method. Table 3. Pk parameters of compounds

HCT116 cells = experiment: Inhibition of cell proliferation by CTG (CellTiter-Glo) luminescence assay; type: cell-based; settings: Homo sapiens, HCT-116, 72 h, read-out: HCT116, IC50
Outline: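 Nine-point 1:3 dilutions applied to HCT116 cells (2 000/well, McCoy's 5a + 10 % FBS) for 72 h at 37 °C, final DMSO 0.25 %. Viability read by CellTiter-Glo luminescence; % inhibition versus DMSO controls fitted to four-parameter logistic for IC50.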

Compound	AUC(0-t) at 24 h ([1]; iv, 2 mg/kg)	Cmax ([1]; iv, 2 mg/kg)	clearance ([1]; iv, 2 mg/kg)	half-life ([1]; iv, 2 mg/kg)	AUC(0-t) at 24 h ([1]; po, 20 mg/kg)	Cmax ([1]; po, 20 mg/kg)	Tmax ([1]; po, 20 mg/kg)	bioavailability ([1]; po, 20 mg/kg)	half-life ([1]; po, 20 mg/kg)	IC50 (HCT116 cells)	AUC(0-t) at 24 h ([1]; iv, 1 mg/kg)	Cmax ([1]; iv, 1 mg/kg)	clearance ([1]; iv, 1 mg/kg)	half-life ([1]; iv, 1 mg/kg)
CC[C@@]1(O)C(=O)OCc2c1cc1n(c2=O)Cc2c-1c(=O)c1cc(F)cc(C)c1n2C [Example 2, (S)-4-ethyl-8-fluoro-4-hydroxy-10,11-dimethyl-1,12-dihydro-14H-pyrano[3,4:6,7]indolizino[2,1-b]quinoline-3,6,14(4H,11H)-trione]	323 ng·h/mL	604 ng/mL	110 mL/min/kg	69.6 min	911 ng·h/mL	956 ng/mL	25.2 min	28.5%	135 min	< 20 nM				
CC[C@@]1(O)C(=O)OCc2c1cc1n(c2=O)Cc2c-1c(=O)c1cc(F)ccc1n2CCN(C)C1CCCC1 [Example 117]										< 20 nM	38.7 ng·h/mL	107 ng/mL	439 mL/min/kg	14.1 min
